Values after ≈ are worked out from the molar mass of the structure shown. Values joined by “and” are separate entries in the source; they are usually repeats but may differ in a detail not shown here. Equal entries are not always repeated. Where two headings read alike, the source gives them in different places.
Columns and labels:
SARS-CoV-2 M^pro-His6 = SARS-CoV-2 M^pro-His6 (Severe acute respiratory syndrome coronavirus 2, UniProt P0DTD1); test: biochemical; settings: for inhibition at 150 µM: read-out: inhibition of enzyme activity
HCoV229E Mpro = HCoV229E Mpro (Human coronavirus 229E, UniProt P0C6X1); test: biochemical
Sequence of HCoV229E Mpro (P0C6X1 2966-3267): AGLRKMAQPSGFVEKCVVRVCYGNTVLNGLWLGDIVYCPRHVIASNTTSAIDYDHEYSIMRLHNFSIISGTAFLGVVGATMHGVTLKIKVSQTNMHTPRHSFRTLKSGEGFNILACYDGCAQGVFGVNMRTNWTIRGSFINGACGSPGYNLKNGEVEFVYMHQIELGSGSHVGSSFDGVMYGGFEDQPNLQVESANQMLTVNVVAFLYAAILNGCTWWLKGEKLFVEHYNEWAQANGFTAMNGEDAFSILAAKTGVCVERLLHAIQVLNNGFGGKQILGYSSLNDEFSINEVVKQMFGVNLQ

in vitro [1] = settings: mouse, plasma
in vitro [2] = settings: human
in vitro [3] = settings: human; remark: listed apart in the source
physchem = settings: aqueous buffer, kinetic from dmso stock
in vitro [4] = settings: human, Caco-2
MERS Mpro = MERS Mpro (Middle East respiratory syndrome-related coronavirus, UniProt K9N7C7); test: biochemical
Sequence of MERS Mpro (K9N7C7 3248-3553 limits assumed): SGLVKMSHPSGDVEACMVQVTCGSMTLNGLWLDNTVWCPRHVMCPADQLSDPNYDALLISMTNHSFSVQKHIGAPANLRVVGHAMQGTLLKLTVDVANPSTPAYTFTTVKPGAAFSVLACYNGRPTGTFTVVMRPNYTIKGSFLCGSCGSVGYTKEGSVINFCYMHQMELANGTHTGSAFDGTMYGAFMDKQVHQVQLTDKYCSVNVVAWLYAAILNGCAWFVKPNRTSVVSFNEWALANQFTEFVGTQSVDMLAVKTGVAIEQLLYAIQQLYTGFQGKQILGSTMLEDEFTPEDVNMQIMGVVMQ

SARS-CoV-2 mature Mpro = SARS-CoV-2 mature Mpro (Severe acute respiratory syndrome coronavirus 2, UniProt P0DTD1); assay type: binding; settings: 3 μM Mpro, 30 μM compound
Human Cathepsin B = Human Cathepsin B (Homo sapiens, UniProt P07858); test: Cathepsin B protease specificity assay (Z-LR-AMC substrate); assay type: biochemical
Human Cathepsin L = Human Cathepsin L (Homo sapiens, UniProt P07711); test: biochemical; settings: 0.01 ng/uL Cathepsin L, pH 5.5, 2 mM DTT; read-out: IC50 HCathepsin L
Sequence of Human Cathepsin L (P07711 114-333): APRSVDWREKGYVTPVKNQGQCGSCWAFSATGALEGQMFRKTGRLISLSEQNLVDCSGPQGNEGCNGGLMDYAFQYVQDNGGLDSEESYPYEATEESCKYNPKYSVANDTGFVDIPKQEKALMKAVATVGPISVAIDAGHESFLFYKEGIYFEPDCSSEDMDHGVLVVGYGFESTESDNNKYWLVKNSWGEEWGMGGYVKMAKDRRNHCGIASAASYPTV

mature SARSCoV2 M^pro = mature SARSCoV2 M^pro (Severe acute respiratory syndrome coronavirus 2, UniProt P0DTD1); test: biochemical; design: species or system SARS-CoV-2
MHV M^pro = MHV M^pro (UniProt P0C6X9); test: In-vitro Mpro inhibition assay, MHV enzyme; assay type: biochemical, mouse hepatitis virus (MHV)
Sequence of MHV M^pro (P0C6X9 3334-3635): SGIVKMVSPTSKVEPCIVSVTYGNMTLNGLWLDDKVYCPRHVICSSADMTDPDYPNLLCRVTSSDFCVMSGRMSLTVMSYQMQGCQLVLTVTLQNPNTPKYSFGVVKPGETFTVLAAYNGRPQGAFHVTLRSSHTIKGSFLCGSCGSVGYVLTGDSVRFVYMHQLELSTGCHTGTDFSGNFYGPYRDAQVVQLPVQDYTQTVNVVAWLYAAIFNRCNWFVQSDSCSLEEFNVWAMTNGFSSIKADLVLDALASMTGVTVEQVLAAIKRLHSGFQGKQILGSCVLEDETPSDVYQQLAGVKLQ

in vitro [5] = settings: human, Caco-2; remark: listed apart in the source
[6] = after a nasal dose; cited from earlier work
[7] = cited from earlier work
Huh7 cells [8] = settings: read-out: CC50 Huh7; 72h incubation
[9] = not given; remark: listed apart in the source
[10] = not given; remark: listed apart in the source
SARSCoV2 = assay type: cell-based, SARS-CoV-2
in vitro [11] = settings: human plasma
in vitro [12] = settings: human; remark: listed apart in the source
Huh7 cells [13] = settings: 100 μM, Huh-7 cells
[14] = 0.05 ng/uL Cathepsin B, pH 5.5, 2 mM DTT, read-out: IC50 HCathepsin B
[15] = 20 nM SARSCoV2 Mpro, 30 min incubation, read-out: IC50 SARSCov2 Mpro
[16] = 100 nM MHV Mpro, read-out: IC50 MHV Mpro
[17] = Example 6, read-out: IC50 against SARS-CoV-2 Mpro
[18] = read-out: IC50, 100 nM mature MHV M^pro at 30° C., 100 nM enzyme, 30° C.

Structure (SMILES) | IC50 (HCoV229E Mpro) | half-life (in vitro [1]) | CC50 (in vitro [2]) | CC50 (in vitro [3]) | solubility kinetic (physchem) | Papp A→B (in vitro [4]) | Papp B→A (in vitro [4]) | IC50 (MERS Mpro) | ΔTm Mpro (SARS-CoV-2 mature Mpro) | IC50 (Human Cathepsin B; [14]) | IC50 (Human Cathepsin L) | Plasma Stability Human T1/2 | IC50 (mature SARSCoV2 M^pro; [15]) | IC50 (MHV M^pro; [16]) | other results
CC(C)c1nc(CN(C)C(=O)N[C@H](C(=O)N[C@@H](Cc2ccccc2)C[C@H](O)[C@H](Cc2ccccc2)NC(=O)OCc2cncs2)C(C)C)cs1 [ritonavir] | – | – | – | – | – | – | – | – | – | – | – | – | – | – | inhibition at 150 µM (SARS-CoV-2 M^pro-His6; 150 μM drug, 2 mM DTT, 100 nM M^pro-His6): < 50%; inhibition of M^pro activity (SARS-CoV-2 M^pro-His6; 150 μM, absence of DTT (air-equilibrated buffer)): no inhibitory effect
O=c1c2ccccc2[se]n1-c1ccccc1 [ebselen] | – | – | – | – | – | – | – | – | – | – | – | – | – | – | inhibition at 150 µM (SARS-CoV-2 M^pro-His6): < 50%
CNC(=O)C(=O)[C@H](C[C@@H]1CCNC1=O)NC(=O)[C@@H]1[C@@H]2[C@H](CN1C(=O)CNc1c(F)cc(F)cc1F)C2(C)C [ML104m] | 230 nM | 81 min | > 100 µM | > 100 µM | 98 µM (≈ 52.7 µg/mL) | 0.5 ×10⁻⁶ cm/s | 2.5 ×10⁻⁶ cm/s | 290 nM | 17.1 °C | – | – | – | – | – | –
CCN(CC)C(=S)SSC(=S)N(CC)CC [disulfiram] | – | – | – | – | – | – | – | – | – | – | – | – | – | – | inhibition at 150 µM (SARS-CoV-2 M^pro-His6): < 50%
CC1(C)[C@@H]2[C@@H](C(=O)N[C@@H](C[C@@H]3CCNC3=O)C(=O)C(N)=O)N(C(=O)CCc3ccccc3)C[C@@H]21 [ML102] | 290 nM | 18 min | > 100 µM | > 100 µM | 83 µM (≈ 38.9 µg/mL) | < 0.2 ×10⁻⁶ cm/s | 0.7 ×10⁻⁶ cm/s | 1200 nM | 15.5 °C | 2.2 µM | 800 nM | ∞ | 90 nM | 980 nM | –
CC1(C)[C@@H]2[C@@H](C(=O)NC(C[C@@H]3CCNC3=O)C(=O)C(N)=O)N(C(=O)CNc3c(F)cc(F)cc3F)C[C@@H]21 (stereo partly drawn) [ML104] | 440 nM | 100 min | > 100 µM | > 100 µM | 86 µM (≈ 45 µg/mL) | < 0.2 ×10⁻⁶ cm/s | 0.9 ×10⁻⁶ cm/s | 190 nM | 17.5 °C | 17 µM | 11000 nM | ∞ | – | 250 nM | IC50 (mature SARSCoV2 M^pro; [17]): < 50 nM and 30 nM; CC50 (in vitro [5]): > 100 µM
CCOC(=O)/C=C/[C@H](C[C@@H]1CCNC1=O)NC(=O)[C@@H](CC(=O)[C@@H](NC(=O)c1cc(C)on1)C(C)C)Cc1ccc(F)cc1 [rupintrivir] | – | – | – | – | – | – | – | – | – | – | – | – | – | – | concentration on nasal surfaces [6]: 5 µM
CNC(=O)C(=O)[C@H](C[C@@H]1CCNC1=O)NC(=O)[C@@H]1[C@@H]2[C@H](CN1C(=O)CCc1ccccc1)C2(C)C [ML102m] | 720 nM | 45 min | > 100 µM | > 100 µM | > 100 µM | 0.4 ×10⁻⁶ cm/s | 1.8 ×10⁻⁶ cm/s | 1100 nM | 15.2 °C | – | – | – | 120 nM | – | –
COc1cccc2[nH]c(C(=O)N3C[C@H]4[C@@H]([C@H]3C(=O)N[C@@H](C[C@@H]3CCNC3=O)C(=O)C(N)=O)C4(C)C)cc12 [ML105] | 10 nM | 20 min | > 100 µM | > 100 µM | 80 µM (≈ 40.8 µg/mL) | < 0.2 ×10⁻⁶ cm/s | 0.3 ×10⁻⁶ cm/s | 340 nM | 18.6 °C | 0.7 µM | 300 nM | ∞ | 20 nM | 60 nM | IC50 (mature SARSCoV2 M^pro; [17]): < 50 nM; CC50 (in vitro [5]): > 100 µM
CCC[C@H](NC(=O)[C@@H]1[C@H]2CCC[C@H]2CN1C(=O)[C@@H](NC(=O)[C@@H](NC(=O)c1cnccn1)C1CCCCC1)C(C)(C)C)C(=O)C(=O)NC1CC1 [Telaprevir, telaprevir, reference compound] | – | – | 10 to 100 µM | 10 to 100 µM | – | – | – | – | – | – | 25000 nM | – | – | – | IC50 (Human Cathepsin B): 36 µM; peak plasma concentration ([7]; after a maximal 750 mg dose): 5 µM
CC(C)C[C@H](NC(=O)OCc1ccccc1)C(=O)N[C@@H](CC1CCNC1=O)C(O)S(=O)(=O)[O-].[Na+] (stereo partly drawn) [GC-376, reference compound] | – | – | – | – | – | – | – | – | – | 0.001 µM | 1 nM | 95 min | – | 50 nM | CC50 (Huh7 cells [8]): > 100 µM; Kinetic Solubility in PBS [9]: 71 µM; IC50 (MHV M^pro; [18]): 67 nM; Plasma Stability Mouse T1/2 [10]: 232 min; EC50 (SARSCoV2; read-out: EC50): 0.1 nM; Caco-2 Permeability Papp A-B (Caco-2; A-B): <0.3 10-6 cm/s; Caco-2 Permeability Papp B-A (Caco-2): 5 10-6 cm/s
CNC(=O)C(=O)[C@H](C[C@@H]1CCNC1=O)NC(=O)[C@@H]1[C@@H]2[C@H](CN1C(=O)[C@@H](NC(=O)C13CC(C1)C3)C(C)(C)C)C2(C)C [ML1002m] | 400 nM | 170 min | > 100 µM | > 100 µM | > 100 µM | 0.4 ×10⁻⁶ cm/s | 0.7 ×10⁻⁶ cm/s | 250 nM | 21 °C | – | – | – | 20 nM | – | –
CC(C)(C)CC(=O)N[C@H](C(=O)N1C[C@H]2[C@@H]([C@H]1C(=O)NC(C[C@@H]1CCNC1=O)C(=O)C(N)=O)C2(C)C)C(C)(C)C (stereo partly drawn) [ML1001] | 500 nM | 26 min | > 100 µM | > 100 µM | 66 µM (≈ 36.1 µg/mL) | < 0.2 ×10⁻⁶ cm/s | 0.5 ×10⁻⁶ cm/s | 260 nM | 21.6 °C | 42 µM | 33000 nM | – | – | 70 nM | half-life (in vitro [11]): 330 min; CC50 (in vitro [5]): > 100 µM
CC(C)(C)[C@H](NC(=O)C12CC(C1)C2)C(=O)N1C[C@H]2[C@@H]([C@H]1C(=O)N[C@@H](C[C@@H]1CCNC1=O)C(=O)C(N)=O)C2(C)C [ML1002] | 260 nM | 21 min | > 100 µM | > 100 µM | > 100 µM | < 0.2 ×10⁻⁶ cm/s | < 0.2 ×10⁻⁶ cm/s | 190 nM | 21.6 °C | – | – | – | 20 nM | – | IC50 (mature SARSCoV2 M^pro; [17]): < 50 nM
CC(C)(C)NC(=O)N[C@H](C(=O)N1C[C@H]2[C@@H]([C@H]1C(=O)NC(CC1CCC1)C(=O)C(N)=O)C2(C)C)C(C)(C)C (stereo partly drawn) [Boceprevir, boceprevir, reference compound] | – | 28 min | – | – | 73 µM (≈ 37.9 µg/mL) | 2 ×10⁻⁶ cm/s | 29 ×10⁻⁶ cm/s | – | – | 4.5 µM | 400 nM | – | – | 15000 nM | peak plasma concentration ([7]; after a maximal 800 mg oral dose): 3 µM; half-life (in vitro [11]): 495 min; CC50 (in vitro [5]): > 100 µM; IC50 (MHV M^pro; [18]): 15000 ± 7000 nM; CC50 (in vitro [12]): > 100 µM
CC(C)(C)NC(=O)N[C@H](C(=O)N1C[C@H]2[C@@H]([C@H]1C(=O)N[C@@H](C[C@@H]1CCNC1=O)C(=O)C(N)=O)C2(C)C)C(C)(C)C [ML1000] | 130 nM | – | – | – | – | – | – | – | – | 5.9 µM | 3200 nM | 109 min | – | – | CC50 (Huh7 cells [8]): > 100 µM; Kinetic Solubility in PBS [9]: 87 µM; cytotoxicity at the highest dose tested (Huh7 cells [13]): no cytotoxicity; Plasma Stability Mouse T1/2 [10]: 23 min; EC50 (SARSCoV2; read-out: EC50: 50% effective antiviral concentration): 100 nM; Caco-2 Permeability Papp B-A (Caco-2): 0.4 10-6 cm/s; Caco-2 Permeability Papp A-B (Caco-2; Caco-2): <0.2 10-6 cm/s; IC50 (MERS Mpro; read-out: IC50 MERS Mpro): 530 nM

Reference: US20230192660A1 (priority 2020, published 2023)
